Patent EP4763837A1, “PHOTOCHROMIC COMPOUND, CURABLE COMPOSITION, OPTICAL ARTICLE, LENS, AND EYEGLASSES” (TOKUYAMA CORPORATION, priority 2023, dated 2025)
Values joined by “and” are separate entries in the source; they are usually repeats but may differ in a detail not shown here. Identical values can stand only once.

Tests used:
Type in all cases: physicochemical
[1] = Photochromic property of photochromic laminate made by coating method
Summary of the method: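 Compound at 0.25 mmol per 100 g methacrylate monomer mix, spin-coated 40 µm on a primed thiourethane lens, photocured 90 s under N2, then 110°C for 1 h. λmax and A23 measured after 240 s irradiation at 23°C; τ1/2 is time to half-fade after irradiation stops. Residual ratio A96/A0 after 96 h xenon weathering.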

[2] = Photochromic property of binder sheet (photochromic layer made by binder method); conditions: for Color developing density at 23°C: absorbance difference after 240 seconds irradiation at the maximum absorption wavelength of the same line
Protocol: (§1) The resulting photochromic laminates were evaluated by the below-mentioned methods. • (1) Photochromic property • [1] Maximum absorption wavelength (λmax): This is the maximum absorption wavelength after color development determined by a spectrophotometer manufactured by Otsuka Electronics Co., Ltd. (instantaneous multichannel photo detector MCPD3000) and was used as an index of a color tone upon color development. • [2] Color developing density at 23°C (A23): This is a difference between an absorbance {ε(240)} after irradiation with light at 23°C for 240 seconds and an absorbance ε(0) when not irradiated with light at the maximum absorption wavelength and was used as an index of a color developing density. The higher this value is, the better a photochromic property is. • [3] Color fading half-life at 23°C [τ1/2 (sec).)]: This is a period of time taken by an absorbance at the maximum absorption wavelength of a sample to decrease to 1/2 of {ε(240)-ε(0)} when irradiation is stopped after irradiation with light at 23°C for 240 seconds, and was used as an index of a color fading rate. The shorter this period of time is, the faster the color fading rate is. • [4] Residual ratio (A96/A0 x 100): The resulting photochromic plastic lens was subjected to accelerated degradation for 96 hours using a xenon weather meter X25 manufactured by Suga Test Instruments Co., Ltd. Color developing densities were then evaluated before and after a test, and a color developing density before the test (A0) and a color developing density after the test (A96) were measured. A ratio (A96/A0) was determined as a residual ratio and was used as an index of color development durability. The higher the residual ratio is, the more durable the color development is.
A binder sheet was produced as follows. The binder sheet was made by laminating a first optical sheet, a first adhesive layer, a photochromic layer, a second adhesive layer, and a second optical sheet in this order. A polycarbonate sheet with a thickness of 400 µm was used as the first optical sheet and the second optical sheet.
A 2 L four-necked flask equipped with a stirring blade, a condense tube, a thermometer, and a nitrogen gas inlet tube was charged with 315 parts by mass of polycarbonate diol with a number average molecular weight of 1000, 100 parts by mass of isophorone diisocyanate, and 72 parts by mass of toluene and reacted under a nitrogen atmosphere at 100°C for 7 hours. Thus, a urethane prepolymer with a terminal isocyanate group was synthesized. After the reaction of the above-mentioned urethane prepolymer was completed, the resulting reaction liquid was cooled to about 0°C and dissolved in 205 parts by mass of tertiary-butyl alcohol and 382 parts by mass of diethyl ketone, and then a temperature of the resulting liquid was kept at 0°C. Next, a mixed solution of 21.3 parts by mass of bis-(4-aminocyclohexyl)methane serving as a chain extender and 20 parts by mass of diethyl ketone was added dropwise thereto within 30 minutes and reacted at 0°C for 1 hour. Then, 8.1 parts by mass of 1,2,2,6,6-pentamethyl-4-aminopiperidine was added dropwise thereto and reacted at 0°C for 1 hour to obtain a solution of a terminal non-reactive urethane urea resin in diethylketone.
One hundred parts by mass of the resulting solution of a terminal non-reactive urethane urea resin, 6.3 parts by mass of Example 1 (a photochromic compound represented by Formula (1-7), an isomer mixture of 4,4'-methylenebis(cyclohexylisocyanate) (polyisocyanate compound)), 0.4 parts by mass of ethylenebis(oxyethylene) bis[3-(5-tert-butyl-4-hydroxy-m-tolyl) propionate] serving as an antioxidant, and 0.06 parts by mass of L-7001 manufactured by DuPont Toray Specialty Materials K.K. serving as a surfactant were added and stirred and mixed at room temperature to obtain a composition for forming a photochromic layer. […]

[3] = Photochromic property of photochromic cured product made by kneading method; conditions: for Residual ratio: A96/A0 x 100 after 96 hours accelerated degradation, xenon weather meter X25; for Color developing density at 23°C: absorbance difference after 240 seconds irradiation at the maximum absorption wavelength of the same line
Protocol: as §1
First, the photochromic compound obtained in Example 1, an additive, and a polymerizable compound were mixed to obtain a curable composition. The polymerizable compound was a combination of the following polymerizable monomers: • · 1,3-Bis(isocyanatomethyl)cyclohexane: 36.7 parts by mass • · Pentaerythritol tetrakis(3-mercaptopropionate): 39.4 parts by mass • · Polyoxyethylene polyoxypropylene lauryl ether (WONDERSURF 140 manufactured by AOKI OIL INDUSTRIAL Co., Ltd.): 17.4 parts by mass • · 1-Decanethiol: 2.8 parts by mass • · RX-1 prepared by the method described in Patent Document 14: 3.8 parts by mass
Note that, in the curable composition, the photochromic compound was added in an amount of 0.106 mmol taking a total amount of the polymerizable monomers as 100 g.
The following additives were used: • · Dimethyltin dichloride: 0.05 parts by mass • · Irganox 245: 0.1 parts by mass • · 2-Ethylhexyl […]: 0.6 parts by mass
After the thus-prepared curable composition was thoroughly defoamed, it was poured into a glass mold with a gap of 1 mm and polymerized by casting polymerization. […] After the polymerization, the resulting cured product was removed from the glass mold to obtain a photochromic cured product with a thickness of 1 mm. The resulting photochromic cured product was evaluated in the same manner as for Example 23.
Photochromic cured products were produced using the photochromic compounds shown in Table 4 in the same manner as in Example 50.

Color fading half-life at 23°C [1] [min] | Residual ratio ([2]; A96/A0 x 100 after 96 hours accelerated degradation, xenon weather meter X25) [%] | Color developing density at 23°C [2] | Residual ratio [3] | Color developing density at 23°C [3] | Residual ratio ([1]; laminate by coating method, A96/A0 x 100 after 96 hours accelerated degradation, xenon weather meter X25) [%] | SMILES
0.717 | 90 | 0.76 - and 0.75 - | 79% and 77% | 0.77 - and 0.74 - |  | CCCC1(CC)c2ccccc2-c2c1c1c(c3cc(OC)c(Sc4c(C)cccc4C)cc23)OC(c2ccc(OC)cc2)(c2ccc(N3CCOCC3)cc2)C=C1 (stereo not shown) [Formula (4-5)]
1.65 |  | 0.89 - and 0.83 - | 78% | 0.90 - and 0.89 - | 68 | CCCCC1(CC)c2ccccc2-c2c1c1c(c3cc(OC)c(C)cc23)OC(c2ccc(OC)cc2)(c2ccc(OCCC)cc2)C=C1 (stereo not shown) [Formula (2-2)]
